Measurements as given in the kinase profiling compilation of Christmann-Franck et al. (2016).

Tests used:
Assay in all cases: KINOMEscan competition binding
Details in all cases: compound 10.0 µM
[1] = molecular target: TYK2 JH2 pseudokinase (human) (UniProt P29597)
PRKG2 (human) = PRKG2 (human) (UniProt Q13237)
GRK4 (human) = GRK4 (human) (UniProt P32298)
TNNI3K (human) = TNNI3K (human) (UniProt Q59H18)
FGFR1 (human) = FGFR1 (human) (UniProt P11362)
IKBKB (human) = IKBKB (human) (UniProt O14920)
MAPK4 (human) = MAPK4 (human) (UniProt P31152)
Sequence of MAPK4 (human) (P31152 whole entry, looked up): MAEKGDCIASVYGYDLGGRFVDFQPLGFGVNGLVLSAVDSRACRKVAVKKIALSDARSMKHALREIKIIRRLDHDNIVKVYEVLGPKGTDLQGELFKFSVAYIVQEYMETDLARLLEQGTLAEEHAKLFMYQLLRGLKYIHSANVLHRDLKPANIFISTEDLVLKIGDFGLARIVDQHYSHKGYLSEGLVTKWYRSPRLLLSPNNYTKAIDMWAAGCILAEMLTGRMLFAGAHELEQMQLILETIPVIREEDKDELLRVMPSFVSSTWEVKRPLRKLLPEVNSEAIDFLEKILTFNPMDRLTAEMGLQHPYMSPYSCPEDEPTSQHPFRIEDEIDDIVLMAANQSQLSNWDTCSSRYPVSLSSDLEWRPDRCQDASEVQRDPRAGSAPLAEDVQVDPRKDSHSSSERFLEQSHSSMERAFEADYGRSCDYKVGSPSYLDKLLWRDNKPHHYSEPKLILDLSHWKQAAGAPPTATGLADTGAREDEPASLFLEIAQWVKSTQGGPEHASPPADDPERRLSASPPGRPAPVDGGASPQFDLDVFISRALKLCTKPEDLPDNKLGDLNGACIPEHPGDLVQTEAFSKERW

PRKAA1 (human) = PRKAA1 (human) (UniProt Q13131)
STK25 (human) = STK25 (human) (UniProt O00506)
PRKAA2 (human) = PRKAA2 (human) (UniProt P54646)
RET (human) = RET (human) (UniProt P07949)
CLK1 (human) = CLK1 (human) (UniProt P49759)
Sequence of CLK1 (human) (P49759 whole entry, looked up): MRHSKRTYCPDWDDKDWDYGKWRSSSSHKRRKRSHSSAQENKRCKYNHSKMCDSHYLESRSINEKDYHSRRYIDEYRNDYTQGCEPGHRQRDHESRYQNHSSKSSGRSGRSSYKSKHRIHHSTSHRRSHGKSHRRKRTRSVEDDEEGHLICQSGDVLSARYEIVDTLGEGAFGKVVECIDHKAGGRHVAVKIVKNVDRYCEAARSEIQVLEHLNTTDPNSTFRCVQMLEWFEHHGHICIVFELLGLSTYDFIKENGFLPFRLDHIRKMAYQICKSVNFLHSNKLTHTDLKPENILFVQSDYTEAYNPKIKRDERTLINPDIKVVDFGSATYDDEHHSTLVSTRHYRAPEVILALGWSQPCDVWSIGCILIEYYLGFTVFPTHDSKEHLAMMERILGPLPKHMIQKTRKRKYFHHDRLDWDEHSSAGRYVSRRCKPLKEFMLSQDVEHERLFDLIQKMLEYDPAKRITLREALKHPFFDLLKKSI

BMPR1A (human) = BMPR1A (human) (UniProt P36894)
Sequence of BMPR1A (human) (P36894 whole entry, looked up): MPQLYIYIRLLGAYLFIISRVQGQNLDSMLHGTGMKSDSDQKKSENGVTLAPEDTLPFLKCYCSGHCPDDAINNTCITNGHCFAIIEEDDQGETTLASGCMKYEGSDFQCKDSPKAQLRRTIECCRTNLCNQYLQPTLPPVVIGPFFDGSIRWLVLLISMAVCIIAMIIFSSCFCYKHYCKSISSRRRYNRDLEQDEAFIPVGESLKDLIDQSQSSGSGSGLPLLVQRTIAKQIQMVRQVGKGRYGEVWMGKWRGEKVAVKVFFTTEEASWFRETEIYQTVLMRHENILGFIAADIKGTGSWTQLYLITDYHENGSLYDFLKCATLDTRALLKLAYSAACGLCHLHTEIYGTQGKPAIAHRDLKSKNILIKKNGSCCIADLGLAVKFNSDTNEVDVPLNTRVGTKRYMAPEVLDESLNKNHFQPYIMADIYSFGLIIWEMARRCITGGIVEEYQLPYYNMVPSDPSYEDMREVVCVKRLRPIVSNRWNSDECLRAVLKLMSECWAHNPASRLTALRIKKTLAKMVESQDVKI

ROCK1 (human) = ROCK1 (human) (UniProt Q13464)
NLK (human) = NLK (human) (UniProt Q9UBE8)
CDC42BPA (human) = CDC42BPA (human) (UniProt Q5VT25)
CSK (human) = CSK (human) (UniProt P41240)
MARK1 (human) = MARK1 (human) (UniProt Q9P0L2)
Sequence of MARK1 (human) (Q9P0L2 whole entry, looked up): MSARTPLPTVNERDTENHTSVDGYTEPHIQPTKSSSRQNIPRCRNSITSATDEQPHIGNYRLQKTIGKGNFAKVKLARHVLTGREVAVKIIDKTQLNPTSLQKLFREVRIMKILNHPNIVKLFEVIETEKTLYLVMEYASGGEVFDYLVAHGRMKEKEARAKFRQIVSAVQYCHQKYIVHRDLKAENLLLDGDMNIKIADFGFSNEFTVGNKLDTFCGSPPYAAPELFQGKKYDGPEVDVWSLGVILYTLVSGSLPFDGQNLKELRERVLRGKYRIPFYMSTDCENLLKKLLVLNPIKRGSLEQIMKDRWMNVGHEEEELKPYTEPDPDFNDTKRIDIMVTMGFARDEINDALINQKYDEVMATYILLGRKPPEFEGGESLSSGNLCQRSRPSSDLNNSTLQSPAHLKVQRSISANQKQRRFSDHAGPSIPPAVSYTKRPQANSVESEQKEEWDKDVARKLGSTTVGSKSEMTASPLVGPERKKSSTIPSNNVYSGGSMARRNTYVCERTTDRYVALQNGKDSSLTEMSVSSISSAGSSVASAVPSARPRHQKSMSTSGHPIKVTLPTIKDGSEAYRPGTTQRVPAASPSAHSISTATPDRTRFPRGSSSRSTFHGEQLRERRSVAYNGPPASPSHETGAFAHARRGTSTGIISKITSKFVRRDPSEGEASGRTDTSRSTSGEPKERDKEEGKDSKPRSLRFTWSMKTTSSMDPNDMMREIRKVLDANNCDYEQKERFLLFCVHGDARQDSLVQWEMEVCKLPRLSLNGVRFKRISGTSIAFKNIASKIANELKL

MAPK10 (human) = MAPK10 (human) (UniProt P53779)
PRKCE (human) = PRKCE (human) (UniProt Q02156)
ACVR1B (human) = ACVR1B (human) (UniProt P36896)
PIM3 (human) = PIM3 (human) (UniProt Q86V86)
MAP3K7 (human) = MAP3K7 (human) (UniProt O43318)
SRPK3 (human) = SRPK3 (human) (UniProt Q9UPE1)
TIE1 (human) = TIE1 (human) (UniProt P35590)
PDGFRA (human) = PDGFRA (human) (UniProt P16234)
LRRK2 (human) = LRRK2 (human) (UniProt Q5S007)
MAP3K5 (human) = MAP3K5 (human) (UniProt Q99683)
FLT3 (human) = FLT3 (human) (UniProt P36888)
TAOK3 (human) = TAOK3 (human) (UniProt Q9H2K8)
Sequence of TAOK3 (human) (Q9H2K8 whole entry, looked up): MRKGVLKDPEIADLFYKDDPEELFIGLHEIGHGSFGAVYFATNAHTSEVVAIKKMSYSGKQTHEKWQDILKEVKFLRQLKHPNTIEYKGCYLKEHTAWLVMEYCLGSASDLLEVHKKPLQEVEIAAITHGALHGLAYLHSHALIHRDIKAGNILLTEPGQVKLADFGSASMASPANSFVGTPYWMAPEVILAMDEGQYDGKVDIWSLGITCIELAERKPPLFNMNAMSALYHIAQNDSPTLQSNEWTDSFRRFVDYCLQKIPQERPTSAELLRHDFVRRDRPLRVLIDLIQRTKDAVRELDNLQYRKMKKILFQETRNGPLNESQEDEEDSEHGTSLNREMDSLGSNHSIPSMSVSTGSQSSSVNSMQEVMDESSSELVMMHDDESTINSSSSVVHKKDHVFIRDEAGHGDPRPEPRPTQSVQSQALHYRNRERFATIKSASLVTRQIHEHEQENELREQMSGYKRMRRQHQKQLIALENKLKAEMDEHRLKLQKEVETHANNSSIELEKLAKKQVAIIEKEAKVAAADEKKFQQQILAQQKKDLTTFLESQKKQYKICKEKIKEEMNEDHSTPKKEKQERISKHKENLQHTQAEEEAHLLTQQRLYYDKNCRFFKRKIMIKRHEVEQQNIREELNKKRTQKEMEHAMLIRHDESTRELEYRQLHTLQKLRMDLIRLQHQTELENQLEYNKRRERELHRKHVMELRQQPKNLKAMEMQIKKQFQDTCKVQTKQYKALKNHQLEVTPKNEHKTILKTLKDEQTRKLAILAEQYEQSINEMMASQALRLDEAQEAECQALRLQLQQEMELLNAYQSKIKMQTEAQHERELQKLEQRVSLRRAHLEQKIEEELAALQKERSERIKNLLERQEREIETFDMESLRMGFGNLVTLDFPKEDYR

STK17A (human) = STK17A (human) (UniProt Q9UEE5)
CDK3 (human) = CDK3 (human) (UniProt Q00526)
Sequence of CDK3 (human) (Q00526 whole entry, looked up): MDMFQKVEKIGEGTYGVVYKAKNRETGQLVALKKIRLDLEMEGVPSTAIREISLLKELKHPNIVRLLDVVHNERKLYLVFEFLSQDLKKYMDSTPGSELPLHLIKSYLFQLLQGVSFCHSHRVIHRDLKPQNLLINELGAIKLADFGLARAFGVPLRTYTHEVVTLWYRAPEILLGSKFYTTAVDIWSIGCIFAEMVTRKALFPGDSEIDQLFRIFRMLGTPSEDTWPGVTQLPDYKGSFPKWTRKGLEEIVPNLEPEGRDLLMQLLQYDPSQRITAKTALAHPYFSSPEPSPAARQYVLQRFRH

CDK15 (human) = CDK15 (human) (UniProt Q96Q40)
MAP3K1 (human) = MAP3K1 (human) (UniProt Q13233)
HIPK1 (human) = HIPK1 (human) (UniProt Q86Z02)
SIK1 (human) = SIK1 (human) (UniProt P57059)
MAPKAPK2 (human) = MAPKAPK2 (human) (UniProt P49137)
STK36 (human) = STK36 (human) (UniProt Q9NRP7)
MAP3K4 (human) = MAP3K4 (human) (UniProt Q9Y6R4)
PIM2 (human) = PIM2 (human) (UniProt Q9P1W9)
Sequence of PIM2 (human) (Q9P1W9 whole entry, looked up): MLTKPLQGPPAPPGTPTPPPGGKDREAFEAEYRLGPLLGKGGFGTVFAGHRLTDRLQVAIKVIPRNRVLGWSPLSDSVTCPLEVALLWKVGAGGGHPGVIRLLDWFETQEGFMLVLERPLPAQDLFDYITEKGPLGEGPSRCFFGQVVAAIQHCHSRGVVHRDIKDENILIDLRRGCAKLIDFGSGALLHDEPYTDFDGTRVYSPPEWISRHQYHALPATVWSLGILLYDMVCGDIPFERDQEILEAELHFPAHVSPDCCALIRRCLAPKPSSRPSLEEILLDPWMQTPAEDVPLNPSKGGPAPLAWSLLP

Sequence of PRKG2 (human) (Q13237 whole entry, looked up): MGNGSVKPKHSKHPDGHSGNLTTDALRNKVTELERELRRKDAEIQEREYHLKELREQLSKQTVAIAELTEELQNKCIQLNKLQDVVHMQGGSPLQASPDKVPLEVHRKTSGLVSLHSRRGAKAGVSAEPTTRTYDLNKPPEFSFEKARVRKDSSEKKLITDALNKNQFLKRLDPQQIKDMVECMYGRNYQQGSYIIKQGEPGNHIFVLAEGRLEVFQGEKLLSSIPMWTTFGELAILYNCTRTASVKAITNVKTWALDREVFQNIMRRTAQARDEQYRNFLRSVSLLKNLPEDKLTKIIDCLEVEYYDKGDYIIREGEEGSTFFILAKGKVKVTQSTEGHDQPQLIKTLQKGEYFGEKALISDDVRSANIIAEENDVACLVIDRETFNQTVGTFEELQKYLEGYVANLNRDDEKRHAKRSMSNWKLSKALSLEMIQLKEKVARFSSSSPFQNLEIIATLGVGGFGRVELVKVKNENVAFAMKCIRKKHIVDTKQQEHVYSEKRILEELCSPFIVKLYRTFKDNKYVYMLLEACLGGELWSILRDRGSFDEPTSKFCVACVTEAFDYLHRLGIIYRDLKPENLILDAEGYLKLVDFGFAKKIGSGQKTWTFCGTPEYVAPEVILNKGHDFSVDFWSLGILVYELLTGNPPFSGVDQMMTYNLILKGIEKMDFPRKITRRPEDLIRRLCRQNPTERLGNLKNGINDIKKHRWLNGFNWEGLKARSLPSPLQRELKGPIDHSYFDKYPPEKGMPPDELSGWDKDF

SMILES	kinase still bound, per cent of control [1] [%]	kinase still bound, per cent of control (PRKG2 (human)) [%]	kinase still bound, per cent of control (GRK4 (human)) [%]	kinase still bound, per cent of control (TNNI3K (human)) [%]	kinase still bound, per cent of control (FGFR1 (human)) [%]	kinase still bound, per cent of control (MAPK4 (human)) [%]	kinase still bound, per cent of control (PRKAA1 (human)) [%]	kinase still bound, per cent of control (PRKAA2 (human)) [%]	kinase still bound, per cent of control (RET (human)) [%]	kinase still bound, per cent of control (CLK1 (human)) [%]	kinase still bound, per cent of control (BMPR1A (human)) [%]	kinase still bound, per cent of control (ROCK1 (human)) [%]	kinase still bound, per cent of control (NLK (human)) [%]	kinase still bound, per cent of control (CDC42BPA (human)) [%]	kinase still bound, per cent of control (CSK (human)) [%]	kinase still bound, per cent of control (MARK1 (human)) [%]	kinase still bound, per cent of control (MAPK10 (human)) [%]	kinase still bound, per cent of control (PRKCE (human)) [%]	kinase still bound, per cent of control (ACVR1B (human)) [%]	kinase still bound, per cent of control (PIM3 (human)) [%]	further results
C=CC(=O)Nc1cc(-n2c(=O)ccc3cnc4ccc(-c5cn[nH]c5)cc4c32)ccc1C	36	78	84	100	80	100	96	78	55	0.4	12	94	63	97	100	78	1.8	100	100	42	kinase still bound, per cent of control (IKBKB (human)): 73%; kinase still bound, per cent of control (STK25 (human)): 70%; kinase still bound, per cent of control (MAP3K7 (human)): 0.35%; kinase still bound, per cent of control (SRPK3 (human)): 68%; kinase still bound, per cent of control (TIE1 (human)): 100%; kinase still bound, per cent of control (PDGFRA (human)): 21%; kinase still bound, per cent of control (LRRK2 (human)): 38%; kinase still bound, per cent of control (MAP3K5 (human)): 100%; kinase still bound, per cent of control (FLT3 (human)): 6.2%; kinase still bound, per cent of control (TAOK3 (human)): 47%; kinase still bound, per cent of control (STK17A (human)): 100%; kinase still bound, per cent of control (CDK3 (human)): 100%; kinase still bound, per cent of control (CDK15 (human)): 49%; kinase still bound, per cent of control (MAP3K1 (human)): 97%; kinase still bound, per cent of control (HIPK1 (human)): 52%; kinase still bound, per cent of control (SIK1 (human)): 77%; kinase still bound, per cent of control (MAPKAPK2 (human)): 100%; kinase still bound, per cent of control (STK36 (human)): 79%; kinase still bound, per cent of control (MAP3K4 (human)): 100%; kinase still bound, per cent of control (PIM2 (human)): 69%
COc1cc2ncn(-c3cc(OCc4ccccc4C(F)(F)F)c(C(N)=O)s3)c2cc1OC	97	86	18	81	43	100	68	92	39	36	100	4.7	68	68	97	82	89	100	76	63	kinase still bound, per cent of control (MAP3K7 (human)): 66%; kinase still bound, per cent of control (SRPK3 (human)): 16%; kinase still bound, per cent of control (TIE1 (human)): 31%; kinase still bound, per cent of control (PDGFRA (human)): 58%; kinase still bound, per cent of control (LRRK2 (human)): 80%; kinase still bound, per cent of control (MAP3K5 (human)): 87%; kinase still bound, per cent of control (TAOK3 (human)): 89%; kinase still bound, per cent of control (STK17A (human)): 100%; kinase still bound, per cent of control (CDK3 (human)): 100%; kinase still bound, per cent of control (MAP3K1 (human)): 1.6%; kinase still bound, per cent of control (HIPK1 (human)): 84%; kinase still bound, per cent of control (SIK1 (human)): 40%; kinase still bound, per cent of control (MAPKAPK2 (human)): 100%; kinase still bound, per cent of control (STK36 (human)): 76%; kinase still bound, per cent of control (MAP3K4 (human)): 90%; kinase still bound, per cent of control (PIM2 (human)): 100%
CNC(=O)c1cc(Oc2ccc(NC(=O)Nc3ccc(Cl)c(C(F)(F)F)c3)cc2)ccn1	100	96	100	19	5.2	100	42	74	0.05	23	100	74	32	95	70	100	100	86	92	80	kinase still bound, per cent of control (IKBKB (human)): 100%; kinase still bound, per cent of control (STK25 (human)): 80%; kinase still bound, per cent of control (MAP3K7 (human)): 6.2%; kinase still bound, per cent of control (SRPK3 (human)): 90%; kinase still bound, per cent of control (PDGFRA (human)): 0%; kinase still bound, per cent of control (LRRK2 (human)): 77%; kinase still bound, per cent of control (MAP3K5 (human)): 90%; kinase still bound, per cent of control (FLT3 (human)): 0.45%; kinase still bound, per cent of control (TAOK3 (human)): 0.8%; kinase still bound, per cent of control (STK17A (human)): 45%; kinase still bound, per cent of control (CDK3 (human)): 52%; kinase still bound, per cent of control (CDK15 (human)): 19%; kinase still bound, per cent of control (MAP3K1 (human)): 64%; kinase still bound, per cent of control (HIPK1 (human)): 13%; kinase still bound, per cent of control (SIK1 (human)): 100%; kinase still bound, per cent of control (MAPKAPK2 (human)): 100%; kinase still bound, per cent of control (STK36 (human)): 23%; kinase still bound, per cent of control (MAP3K4 (human)): 98%; kinase still bound, per cent of control (PIM2 (human)): 91%
